Test results as given in PMC5218480 (PLoS ONE, 2017).

System: MV-4-11 cells
Test: Gene expression microarray analysis (Affymetrix PrimeView) and GSEA
Format: cell-based, human
Set-up: RFU PODN (11730768_x_at) / Fold change /veh PODN (11730768_x_at) / RFU LINC00158 (11744669_a_at) / Fold change /veh LINC00158 (11744669_a_at) / RFU DUSP10 (11751237_a_at) / Fold change /veh DUSP10 (11751237_a_at) / RFU ID3 (11757404_x_at) / Fold change /veh ID3 (11757404_x_at) / RFU PLEKHG5 (11737974_s_at) / Fold change /veh PLEKHG5 (11737974_s_at) / RFU LRRC4B (11730491_at) / Fold change /veh LRRC4B (11730491_at) / RFU GIMAP4 (11747438_a_at) / Fold change /veh GIMAP4 (11747438_a_at) / RFU KRT8 (11758183_x_at) / Fold change /veh KRT8 (11758183_x_at) / RFU CNN1 (11734310_a_at) / Fold change /veh CNN1 (11734310_a_at) / RFU VPS37D (11726825_at) / Fold change /veh VPS37D (11726825_at) / RFU C10orf10 (11716522_x_at) / Fold change /veh C10orf10 (11716522_x_at) / RFU KIR2DL2 /// KIR2DL4 /// KIR2DL5A /// KIR2DL5B /// KIR2DS1 /// KIR2DS2 /// KIR2DS3 /// KIR2DS4 /// KIR3DL3 /// KIR3DL3 /// KIR3DS1 (11738374_at) / Fold change /veh KIR2DL2 /// KIR2DL4 /// KIR2DL5A /// KIR2DL5B /// KIR2DS1 /// KIR2DS2 /// KIR2DS3 /// KIR2DS4 /// KIR3DL3 /// KIR3DL3 /// KIR3DS1 (11738374_at) / RFU C1QL1 (11718748_at) / Fold change /veh C1QL1 (11718748_at) / RFU TMPRSS4 (11747572_a_at) / Fold change /veh TMPRSS4 (11747572_a_at) / RFU HAMP (11756126_x_at) / Fold change /veh HAMP (11756126_x_at) / RFU RNFT2 (11725882_a_at) / Fold change /veh RNFT2 (11725882_a_at) / RFU NR4A2 (11747474_a_at) / Fold change /veh NR4A2 (11747474_a_at) / RFU ABCC12 (11746883_a_at) / Fold change /veh ABCC12 (11746883_a_at) / RFU TMEM136 (11760407_x_at) / Fold change /veh TMEM136 (11760407_x_at) / RFU CLDN22 /// WWC2 (11732394_at) / Fold change /veh CLDN22 /// WWC2 (11732394_at) / RFU HLA-DPB1 (11760878_x_at) / Fold change /veh HLA-DPB1 (11760878_x_at) / RFU SPINT1 (11716480_a_at) / Fold change /veh SPINT1 (11716480_a_at) / RFU GAP43 (11754022_s_at) / Fold change /veh GAP43 (11754022_s_at) / RFU A4GNT (11735810_at) / Fold change /veh A4GNT (11735810_at) / RFU PRB3 (11715151_x_at) / Fold change /veh PRB3 (11715151_x_at) / RFU TUBB4B (11761932_at) / Fold change /veh TUBB4B (11761932_at) / RFU CAPN14 (11732068_a_at) / Fold change /veh CAPN14 (11732068_a_at) / RFU TMCC2 (11721928_a_at) / Fold change /veh TMCC2 (11721928_a_at) / RFU IRGQ (11745062_a_at) / Fold change /veh IRGQ (11745062_a_at) / RFU FAM174B (11720279_a_at) / Fold change /veh FAM174B (11720279_a_at) / RFU TMPRSS4 (11748680_a_at) / Fold change /veh TMPRSS4 (11748680_a_at) / RFU FAM212B (11763350_a_at) / Fold change /veh FAM212B (11763350_a_at) / RFU PLEKHG5 (11743358_a_at) / Fold change /veh PLEKHG5 (11743358_a_at) / RFU ZSCAN30 (11745921_a_at) / Fold change /veh ZSCAN30 (11745921_a_at) / RFU CMKLR1 (11741424_a_at) / Fold change /veh CMKLR1 (11741424_a_at) / RFU LOC101060620 /// MAPK8IP1 (11723275_at) / Fold change /veh LOC101060620 /// MAPK8IP1 (11723275_at) / RFU SPTSSB (11747773_x_at) / Fold change /veh SPTSSB (11747773_x_at) / RFU PRSS12 (11739890_at) / Fold change /veh PRSS12 (11739890_at) / RFU BIN1 (11741810_x_at) / Fold change /veh BIN1 (11741810_x_at) / RFU WNT11 (11732464_a_at) / Fold change /veh WNT11 (11732464_a_at) / RFU C10orf10 (11716521_a_at) / Fold change /veh C10orf10 (11716521_a_at) / RFU C5orf56 (11738089_at) / Fold change /veh C5orf56 (11738089_at) / RFU CYB561 (11721691_x_at) / Fold change /veh CYB561 (11721691_x_at) / RFU ANKRD19P (11752326_a_at) / Fold change /veh ANKRD19P (11752326_a_at) / RFU OR2T12 /// OR2T33 /// OR2T8 (11738714_s_at) / Fold change /veh OR2T12 /// OR2T33 /// OR2T8 (11738714_s_at) / RFU VCAN (11748164_a_at) / Fold change /veh VCAN (11748164_a_at) / RFU JSRP1 (11732532_at) / Fold change /veh JSRP1 (11732532_at) / RFU KRTAP10-11 (11738290_x_at) / Fold change /veh KRTAP10-11 (11738290_x_at) / RFU MYO3A (11730013_a_at) / Fold change /veh MYO3A (11730013_a_at) / RFU EBF3 (11725865_a_at) / Fold change /veh EBF3 (11725865_a_at) / RFU CAMK2N1 (11719241_x_at) / Fold change /veh CAMK2N1 (11719241_x_at) / RFU C5orf56 (11738088_a_at) / Fold change /veh C5orf56 (11738088_a_at) / RFU OLFML3 (11715873_a_at) / Fold change /veh OLFML3 (11715873_a_at) / RFU LOC100653217 /// NTM (11731650_a_at) / Fold change /veh LOC100653217 /// NTM (11731650_a_at) / RFU MAPK11 (11762145_a_at) / Fold change /veh MAPK11 (11762145_a_at) / RFU FIZ1 (11724087_x_at) / Fold change /veh FIZ1 (11724087_x_at) / RFU OASL (11726364_x_at) / Fold change /veh OASL (11726364_x_at) / RFU SOX15 (11748057_x_at) / Fold change /veh SOX15 (11748057_x_at) / RFU CD79A (11719716_a_at) / Fold change /veh CD79A (11719716_a_at) / RFU HIST1H1D (11736915_at) / Fold change /veh HIST1H1D (11736915_at) / RFU CASKIN2 (11723855_a_at) / Fold change /veh CASKIN2 (11723855_a_at) / RFU LOC730098 (11760151_x_at) / Fold change /veh LOC730098 (11760151_x_at) / RFU OR4N2 (11742367_at) / Fold change /veh OR4N2 (11742367_at) / RFU PRRT2 (11749266_a_at) / Fold change /veh PRRT2 (11749266_a_at) / RFU SNX32 (11753110_a_at) / Fold change /veh SNX32 (11753110_a_at) / RFU CDHR5 (11726645_a_at) / Fold change /veh CDHR5 (11726645_a_at) / RFU RCAN1 (11760418_a_at) / Fold change /veh RCAN1 (11760418_a_at) / RFU FAM167A (11723789_a_at) / Fold change /veh FAM167A (11723789_a_at) / RFU FAM26E (11764081_at) / Fold change /veh FAM26E (11764081_at) / RFU ISYNA1 (11749810_s_at) / Fold change /veh ISYNA1 (11749810_s_at) / RFU ACY1 (11761880_at) / Fold change /veh ACY1 (11761880_at) / RFU 11764098_at / Fold change /veh 11764098_at / RFU SAMD14 (11745864_x_at) / Fold change /veh SAMD14 (11745864_x_at) / RFU NPB (11741838_a_at) / Fold change /veh NPB (11741838_a_at) / RFU TMPRSS6 (11731388_a_at) / Fold change /veh TMPRSS6 (11731388_a_at) / RFU KRTAP10-2 (11738614_at) / Fold change /veh KRTAP10-2 (11738614_at) / RFU ARHGAP8 /// PRR5-ARHGAP8 (11727945_x_at) / Fold change /veh ARHGAP8 /// PRR5-ARHGAP8 (11727945_x_at) / RFU KRTAP5-7 /// NADSYN1 (11734609_at) / Fold change /veh KRTAP5-7 /// NADSYN1 (11734609_at) / RFU RASL12 (11751679_a_at) / Fold change /veh RASL12 (11751679_a_at) / RFU CDKN2B (11736163_a_at) / Fold change /veh CDKN2B (11736163_a_at) / RFU PRF1 (11729649_at) / Fold change /veh PRF1 (11729649_at) / RFU, ZNF638 /// ZNF638-IT1 / Fold change vs veh, ZNF638 /// ZNF638-IT1 / RFU, PANK3 / Fold change vs veh, PANK3 / RFU, SH3YL1 / Fold change vs veh, SH3YL1 / RFU, ZEB2 / Fold change vs veh, ZEB2 / RFU, NRIP1 / Fold change vs veh, NRIP1 / RFU, PTTG1IP / Fold change vs veh, PTTG1IP / RFU, CAPN2 / Fold change vs veh, CAPN2 / RFU, MED14 / Fold change vs veh, MED14 / RFU, SNORA58 / Fold change vs veh, SNORA58 / RFU, C1orf63 / Fold change vs veh, C1orf63 / RFU, LRRFIP1 / Fold change vs veh, LRRFIP1 / RFU, NDUFAF7 / Fold change vs veh, NDUFAF7 / RFU, SLC12A2 / Fold change vs veh, SLC12A2 / RFU, IBTK / Fold change vs veh, IBTK / RFU, ESF1 / Fold change vs veh, ESF1 / Fold change vs veh, TMEM50B / RFU, TAOK1 / Fold change vs veh, TAOK1 / RFU, ACBD3 / Fold change vs veh, ACBD3 / RFU, TMA16 / Fold change vs veh, TMA16 / RFU, RWDD3 / Fold change vs veh, RWDD3 / RFU, BCAT1 / Fold change vs veh, BCAT1 / RFU, EDEM3 / Fold change vs veh, EDEM3 / RFU, TMEM33 / Fold change vs veh, TMEM33 / RFU, WDR75 / Fold change vs veh, WDR75 / RFU, AHCTF1 / Fold change vs veh, AHCTF1 / RFU, TFRC / Fold change vs veh, TFRC / RFU, ZDHHC17 / Fold change vs veh, ZDHHC17 / RFU, NOM1 / Fold change vs veh, NOM1 / RFU, ARL8B / Fold change vs veh, ARL8B / RFU, ZBTB11 / Fold change vs veh, ZBTB11 / RFU, TAMM41 / Fold change vs veh, TAMM41 / RFU, KIAA1704 /// LOC100996395 / Fold change vs veh, KIAA1704 /// LOC100996395 / RFU, ING1 / Fold change vs veh, ING1 / RFU, TRMT61B / Fold change vs veh, TRMT61B / RFU, FUBP3 / Fold change vs veh, FUBP3 / RFU, TP53 / Fold change vs veh, TP53 / RFU, TNKS2 / Fold change vs veh, TNKS2 / RFU, ZFP14 / Fold change vs veh, ZFP14 / RFU, ACTR2 / Fold change vs veh, ACTR2 / RFU, PPP3R1 / Fold change vs veh, PPP3R1 / RFU, PIK3R1 / Fold change vs veh, PIK3R1 / RFU, HNRNPA1 / Fold change vs veh, HNRNPA1 / RFU, RNF170 / Fold change vs veh, RNF170 / RFU, ZNF28 / Fold change vs veh, ZNF28 / RFU, RNGTT / Fold change vs veh, RNGTT / RFU, OGT / Fold change vs veh, OGT / RFU, BRD1 / Fold change vs veh, BRD1 / RFU, MARS / Fold change vs veh, MARS / RFU, ZNF655 / Fold change vs veh, ZNF655 / RFU, FAHD1 / Fold change vs veh, FAHD1 / RFU, BDP1 / Fold change vs veh, BDP1 / RFU, LRRCC1 / Fold change vs veh, LRRCC1 / RFU, ARID1A / Fold change vs veh, ARID1A / RFU, ZNF146 / Fold change vs veh, ZNF146 / RFU, ZNF330 / Fold change vs veh, ZNF330 / RFU, GPN3 / Fold change vs veh, GPN3 / RFU, C9orf123 / Fold change vs veh, C9orf123 / RFU, N4BP2L2 / Fold change vs veh, N4BP2L2 / RFU, ARFIP1 / Fold change vs veh, ARFIP1 / RFU, FAM179B / Fold change vs veh, FAM179B / RFU, BCL10 / Fold change vs veh, BCL10 / RFU, UHRF1BP1L / Fold change vs veh, UHRF1BP1L / RFU, BET1 / Fold change vs veh, BET1 / RFU, CNOT2 / Fold change vs veh, CNOT2 / RFU, ZNF268 / Fold change vs veh, ZNF268 / Fold change vs veh, ZNF507 / RFU, DGCR2 / Fold change vs veh, DGCR2 / RFU, WDSUB1 / Fold change vs veh, WDSUB1 / Fold change vs veh, HSP90B1 /// MIR3652 / RFU, ADSS / Fold change vs veh, ADSS / RFU, GK / Fold change vs veh, GK / RFU, ZNF148 / Fold change vs veh, ZNF148 / RFU, TAF9 / Fold change vs veh, TAF9 / RFU, SLC1A5 / Fold change vs veh, SLC1A5 / RFU, SLMO2 / Fold change vs veh, SLMO2 / RFU, ABCC4 / Fold change vs veh, ABCC4 / RFU, LOC101060439 /// RAP1B / Fold change vs veh, LOC101060439 /// RAP1B / RFU, RFX7 / Fold change vs veh, RFX7 / RFU, GTPBP10 / Fold change vs veh, GTPBP10 / RFU, CNEP1R1 / Fold change vs veh, CNEP1R1 / RFU, BIVM-ERCC5 /// ERCC5 / Fold change vs veh, BIVM-ERCC5 /// ERCC5 / RFU, ILF3 / Fold change vs veh, ILF3 / RFU 11762660_at / Fold change /veh 11762660_at / RFU VCAN (11757783_s_at) / Fold change /veh VCAN (11757783_s_at) / RFU DDX43 (11728927_at) / Fold change /veh DDX43 (11728927_at) / RFU KRT8 (11758188_x_at) / Fold change /veh KRT8 (11758188_x_at) / RFU NKD1 (11759106_at) / Fold change /veh NKD1 (11759106_at) / RFU SRD5A1 (11742802_a_at) / Fold change /veh SRD5A1 (11742802_a_at) / RFU TPSAB1 /// TPSB2 (11721975_s_at) / Fold change /veh TPSAB1 /// TPSB2 (11721975_s_at) / RFU GSTM3 (11746129_a_at) / Fold change /veh GSTM3 (11746129_a_at) / RFU IL23R (11737362_x_at) / Fold change /veh IL23R (11737362_x_at) / RFU TMEM51 (11727254_a_at) / Fold change /veh TMEM51 (11727254_a_at) / RFU PIWIL2 (11732686_x_at) / Fold change /veh PIWIL2 (11732686_x_at) / RFU ORM1 (11744905_x_at) / Fold change /veh ORM1 (11744905_x_at) / RFU CCDC152 (11743942_at) / Fold change /veh CCDC152 (11743942_at) / RFU ECM1 (11717891_a_at) / Fold change /veh ECM1 (11717891_a_at) / RFU IL23R (11748794_a_at) / Fold change /veh IL23R (11748794_a_at) / RFU TNFAIP8L3 (11732012_x_at) / Fold change /veh TNFAIP8L3 (11732012_x_at) / RFU MBOAT4 (11741988_at) / Fold change /veh MBOAT4 (11741988_at) / RFU 11764193_at / Fold change /veh 11764193_at / RFU TMEM53 (11763286_at) / Fold change /veh TMEM53 (11763286_at) / RFU MAGEB2 (11727129_at) / Fold change /veh MAGEB2 (11727129_at) / RFU TMEM200A (11744735_a_at) / Fold change /veh TMEM200A (11744735_a_at) / RFU CCDC152 (11751479_a_at) / Fold change /veh CCDC152 (11751479_a_at) / RFU FAM211A (11726209_a_at) / Fold change /veh FAM211A (11726209_a_at) / RFU RGS16 (11746705_a_at) / Fold change /veh RGS16 (11746705_a_at) / RFU VCAN (11755009_s_at) / Fold change /veh VCAN (11755009_s_at) / RFU RHOB (11743442_s_at) / Fold change /veh RHOB (11743442_s_at) / RFU RGS16 (11720943_a_at) / Fold change /veh RGS16 (11720943_a_at) / RFU RGS16 (11720944_at) / Fold change /veh RGS16 (11720944_at) / RFU, VPS4B / Fold change vs veh, VPS4B / RFU, CREB1 / Fold change vs veh, CREB1 / RFU, DNAJC13 / Fold change vs veh, DNAJC13 / RFU, GNAQ / Fold change vs veh, GNAQ / RFU, CDK5R1 / Fold change vs veh, CDK5R1 / RFU, ZRANB3 / Fold change vs veh, ZRANB3 / RFU, CUL4A / Fold change vs veh, CUL4A / RFU, CCNY / Fold change vs veh, CCNY / RFU, UFL1 / Fold change vs veh, UFL1 / RFU, COG3 / Fold change vs veh, COG3 / RFU, DIAPH2 / Fold change vs veh, DIAPH2 / RFU, SKA2 / Fold change vs veh, SKA2 / RFU, AFF3 / Fold change vs veh, AFF3 / RFU, LMF1 / Fold change vs veh, LMF1 / RFU, IPO11 / Fold change vs veh, IPO11 / RFU, DFFB / Fold change vs veh, DFFB / RFU, FOXP1 / Fold change vs veh, FOXP1 / RFU, CARD8 / Fold change vs veh, CARD8 / RFU, STRN3 / Fold change vs veh, STRN3 / RFU, ADK / Fold change vs veh, ADK / RFU, RASSF2 / Fold change vs veh, RASSF2 / RFU, WIPF1 / Fold change vs veh, WIPF1 / RFU, LARP1B / Fold change vs veh, LARP1B / RFU, RASA1 / Fold change vs veh, RASA1 / RFU, RB1 / Fold change vs veh, RB1 / RFU, PPFIA1 / Fold change vs veh, PPFIA1 / RFU, MAT2A / Fold change vs veh, MAT2A / RFU, CCT5 / Fold change vs veh, CCT5 / RFU, WDR92 / Fold change vs veh, WDR92 / RFU, CUX1 / Fold change vs veh, CUX1 / RFU, TTC7A / Fold change vs veh, TTC7A / RFU, TMEM135 / Fold change vs veh, TMEM135 / RFU, DEPTOR / Fold change vs veh, DEPTOR / RFU, CPM / Fold change vs veh, CPM / RFU, DNAJB6 / Fold change vs veh, DNAJB6 / RFU, CACNA2D3 / Fold change vs veh, CACNA2D3 / RFU, DTX4 / Fold change vs veh, DTX4 / RFU, TFCP2 / Fold change vs veh, TFCP2 / RFU, GMCL1 /// GMCL1P1 / Fold change vs veh, GMCL1 /// GMCL1P1 / RFU, AEBP2 / Fold change vs veh, AEBP2 / RFU, SNHG1 /// SNORD22 /// SNORD25 /// SNORD26 /// SNORD27 /// SNORD28 /// SNORD29 /// SNORD31 / Fold change vs veh, SNHG1 /// SNORD22 /// SNORD25 /// SNORD26 /// SNORD27 /// SNORD28 /// SNORD29 /// SNORD31 / Fold change (Aza/veh), C12orf56 (ProbeSet 11735607_a_at) / Fold change (ACY-1035/veh), C12orf56 (ProbeSet 11735607_a_at) / Fold change (Aza/veh), FGFR1OP (ProbeSet 11751329_s_at) / Fold change (ACY-1035/veh), FGFR1OP (ProbeSet 11751329_s_at) / Fold change (Aza/veh), VPS36 (ProbeSet 11739960_a_at) / Fold change (ACY-1035/veh), VPS36 (ProbeSet 11739960_a_at) / RFU SYPL1 (11715823_x_at) / Fold change /veh SYPL1 (11715823_x_at) / RFU IGFBP7 (11715501_s_at) / Fold change /veh IGFBP7 (11715501_s_at) / RFU REEP3 (11722064_at) / Fold change /veh REEP3 (11722064_at) / RFU IGLL1 (11728026_x_at) / Fold change /veh IGLL1 (11728026_x_at): dose or concentration left out as unconfirmed
Details: ProbeSet 11719185_x_at; LIST B

Nc1ccc(-c2cccs2)cc1NC(=O)c1ccc2c(c1)cc(C1CC1)n2CCN1CCOCC1 [ACY-1035]
Fold change vs veh, N4BP2L2: 1.03
